In patent US12378249B2, “Isoquinoline compounds and uses thereof” (Genentech, Inc., priority 2018, dated 2025) one finds Ki data, which are given here for 22 compounds.

Chain of HPK1 (Q92918 whole entry T165E/S171E): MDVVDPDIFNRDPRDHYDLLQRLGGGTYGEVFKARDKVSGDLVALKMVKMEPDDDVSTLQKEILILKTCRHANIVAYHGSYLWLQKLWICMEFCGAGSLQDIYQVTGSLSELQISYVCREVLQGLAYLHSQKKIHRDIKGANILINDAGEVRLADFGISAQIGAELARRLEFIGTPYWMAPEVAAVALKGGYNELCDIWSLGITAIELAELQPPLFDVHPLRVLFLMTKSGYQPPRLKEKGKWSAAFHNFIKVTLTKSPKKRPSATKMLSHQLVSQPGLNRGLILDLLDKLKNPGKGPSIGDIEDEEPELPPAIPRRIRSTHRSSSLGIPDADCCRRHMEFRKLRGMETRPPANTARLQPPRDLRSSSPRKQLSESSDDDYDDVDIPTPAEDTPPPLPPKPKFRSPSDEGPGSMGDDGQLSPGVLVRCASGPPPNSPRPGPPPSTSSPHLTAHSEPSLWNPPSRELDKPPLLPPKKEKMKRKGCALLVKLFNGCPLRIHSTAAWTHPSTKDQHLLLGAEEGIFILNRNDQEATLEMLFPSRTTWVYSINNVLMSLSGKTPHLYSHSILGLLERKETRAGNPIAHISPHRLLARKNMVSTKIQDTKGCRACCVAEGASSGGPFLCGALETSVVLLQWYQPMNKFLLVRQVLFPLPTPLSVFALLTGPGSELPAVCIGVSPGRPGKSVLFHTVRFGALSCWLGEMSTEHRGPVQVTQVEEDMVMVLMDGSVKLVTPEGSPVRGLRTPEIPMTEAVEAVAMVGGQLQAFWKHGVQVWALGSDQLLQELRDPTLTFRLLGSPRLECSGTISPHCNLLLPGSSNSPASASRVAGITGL

For the assay, the target named is HPK1 (Homo sapiens (Human), UniProt Q92918, S171E/T165E). The experiment in a line: HPK1-FL HTRF Enzymatic Assay (HTRF). The format is biochemical. The conditions noted are these: HPK full length T165E S171E 0.125 nM, ATP 1 mM, Biotin-SLP76 100 nM, read-out: HPK1 Ki (nM), H = HTRF. The method, boiled down:
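Ki derived from % activity calculated from the TR-FRET 665/620 ratio, using Eu-anti-pSLP76 and SA-XL665 detection added for 60 min. Reaction: compound preincubated 30 min with full-length double-mutant HPK1, then 60 min with Biotin-SLP-76 and 1 mM ATP, pH 7.5 HEPES buffer.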
Background: Time-resolved FRET reads energy transfer from a long-lived donor to a nearby acceptor.
For the compound `Cc1c(-c2cc(F)c3cnc(Nc4cc5n(n4)CC(=O)N(C)CC54CC4)cc3c2)cnc2c1NCC[C@@H]2O` (single isomer, unassigned) [Compound 237a], the Ki worked out at 0.332 nM.
Consider `Cc1ncc(-c2cc(F)c3cnc(Nc4cc5n(n4)CC(=O)NCC5)cc3c2)c(C)c1N` [Compound 233, 2-((6-(5-amino-4,6-dimethylpyridin-3-yl)-8-fluoroisoquinolin-3-yl)amino)-5,6-dihydro-4H-pyrazolo[1,5-d][1,4]diazepin-7(8H)-one], for which the Ki was 0.155 nM.
The same measure for `Cc1c(-c2cc3cc(Nc4cc5n(n4)CC(=O)N(C(C)C)CC5)ncc3cc2F)cnc2oc(=O)[nH]c12` [Compound 142, 6-(7-fluoro-3-((6-isopropyl-7-oxo-5,6,7,8-tetrahydro-4H-pyrazolo[1,5-d][1,4]diazepin-2-yl)amino)isoquinolin-6-yl)-7-methyloxazolo[5,4-b]pyridin-2(1H)-one]: 1.9 nM; for `CO[C@H]1CCNc2c1ncc(-c1cc(F)c3cnc(Nc4cc5n(n4)CC(=O)N(C)CC5)cc3c1)c2C` (single isomer, unassigned) [Compound 234a]: 0.46 nM; for `Cc1c(N)cncc1-c1ccc2cnc(Nc3cc4n(n3)CC(=O)N(C(C)C)CC4)cc2c1` [Compound 129, 2-[[6-(5-amino-4-methyl-3-pyridyl)-3-isoquinolyl]amino]-6-isopropyl-5,8-dihydro-4H-pyrazolo[1,5-d][1,4]diazepin-7-one]: 0.04 nM.
Regarding `CNc1cncc(-c2cc3cc(Nc4cc5n(n4)CC(=O)NCC5)ncc3cc2F)c1C` [Compound 181, 2-((7-fluoro-6-(4-methyl-5-(methylamino)pyridin-3-yl)isoquinolin-3-yl)amino)-5,6-dihydro-4H-pyrazolo[1,5-d][1,4]diazepin-7(8H)-one], the Ki was 0.026 nM.
With `Cc1c(-c2ccc3cnc(Nc4cc5n(n4)CC(=O)N(C)CC5)cc3c2F)cnc2c1NCCO2` [Compound 174, 2-((5-fluoro-6-(8-methyl-2,3-dihydro-1H-pyrido[2,3-b][1,4]oxazin-7-yl)isoquinolin-3-yl)amino)-6-methyl-5,6-dihydro-4H-pyrazolo[1,5-d][1,4]diazepin-7(8H)-one], the inhibition constant Ki worked out at 0.026 nM.
As to `Cc1c(-c2cc3cc(Nc4cc5n(n4)CC(=O)N(C)CC5)ncc3cc2F)cnc2c1[C@](C)(O)CCO2` (single isomer, unassigned) [Compound 226b], the Ki is 1.9 nM.
Regarding `CC(C)N1CCc2cc(Nc3cc4cc(C(=O)N5CCN(C)CC5)c(F)cc4cn3)nn2CC1=O` [Compound 124, 2-((7-fluoro-6-(4-methylpiperazine-1-carbonyl)isoquinolin-3-yl)amino)-6-isopropyl-5,6-dihydro-4H-pyrazolo[1,5-d][1,4]diazepin-7(8H)-one], the Ki came out at 63 nM.
As to `Cc1c(-c2cc3cc(Nc4cc5n(n4)CC(=O)N(CCO)CC5)ncc3cc2F)cnc2c1NCCO2` [Compound 145, 2-((7-fluoro-6-(8-methyl-2,3-dihydro-1H-pyrido[2,3-b][1,4]oxazin-7-yl)isoquinolin-3-yl)amino)-6-(2-hydroxyethyl)-5,6-dihydro-4H-pyrazolo[1,5-d][1,4]diazepin-7(8H)-one], the Ki is 0.013 nM.
On to `Cc1c(-c2cc3cc(Nc4cc5n(n4)Cc4nccn4CC5)ncc3cc2F)cnc2c1NCCO2` [Compound 143, N-(7-fluoro-6-(8-methyl-2,3-dihydro-1H-pyrido[2,3-b][1,4]oxazin-7-yl)isoquinolin-3-yl)-5,6-dihydro-11H-imidazo[1,2-a]pyrazolo[1,5-d][1,4]diazepin-8-amine], for which the Ki was found to be 0.013 nM.
Regarding `Cc1c(N)cncc1-c1cc2cc(Nc3cc4n(n3)Cc3nccn3CC4O)ncc2c(F)c1F` (racemic) [Compound 170, (+/−)-8-((6-(5-amino-4-methylpyridin-3-yl)-7,8-difluoroisoquinolin-3-yl)amino)-5,6-dihydro-11H-imidazo[1,2-a]pyrazolo[1,5-d][1,4]diazepin-6-ol], the Ki is 0.035 nM.
`Cc1c(-c2cc3cc(Nc4cc5n(n4)CC(=O)NCC5)ncc3cc2F)cnc2c1NCCO2` [Compound 160, 2-((7-fluoro-6-(8-methyl-2,3-dihydro-1H-pyrido[2,3-b][1,4]oxazin-7-yl)isoquinolin-3-yl)amino)-5,6-dihydro-4H-pyrazolo[1,5-d][1,4]diazepin-7(8H)-one]: the Ki was 0.013 nM.
Consider `Cc1c(N)cncc1-c1cc2cc(Nc3cc4n(n3)CC(=O)N(C)CC43CC3)ncc2cc1F` [Compound 111, 2-[[6-(5-amino-4-methyl-3-pyridyl)-7-fluoro-3-isoquinolyl]amino]-6-methyl-spiro[5,8-dihydropyrazolo[1,5-d][1,4]diazepine-4,1′-cyclopropane]-7-one], for which the Ki was 0.01 nM.
As to `Cc1cc(N2CCNCC2)ncc1-c1cc2cc(Nc3cc4n(n3)CC(=O)N(C)CC4)ncc2cc1F` [Compound 198, 2-((7-fluoro-6-(4-methyl-6-(piperazin-1-yl)pyridin-3-yl)isoquinolin-3-yl)amino)-6-methyl-5,6-dihydro-4H-pyrazolo[1,5-d][1,4]diazepin-7(8H)-one], the inhibition constant (Ki) was found to be 4.2 nM.
In the case of `Cc1c(-c2cc3cc(Nc4cc5n(n4)Cc4nncn4CC5)ncc3cc2F)cnc2c1NCCO2` [Compound 151, N-(7-fluoro-6-(8-methyl-2,3-dihydro-1H-pyrido[2,3-b][1,4]oxazin-7-yl)isoquinolin-3-yl)-5,6-dihydro-11H-pyrazolo[1,5-d][1,2,4]triazolo[4,3-a][1,4]diazepin-8-amine], the Ki was 0.013 nM.
Take `Cc1ccncc1-c1cc2cc(Nc3cn4c(n3)CC(=O)N(C)CC4)ncc2c(Cl)c1F` [Compound 114, 2-((8-chloro-7-fluoro-6-(4-methylpyridin-3-yl)isoquinolin-3-yl)amino)-7-methyl-6,7-dihydro-5H-imidazo[1,2-d][1,4]diazepin-8(9H)-one]: the Ki stood at 75 nM.
With `Cc1c(N)cncc1-c1cc2cc(Nc3cc4n(n3)CC(=O)N(C(C)C)CC4O)ncc2cc1F` (single isomer, unassigned) [Compound 153b] the figure was 0.075 nM; with `Cc1c(-c2cc3cc(Nc4cc5n(n4)Cc4nccn4CC5)ncc3c(F)c2F)cnc2c1NCCO2` [Compound 161, N-(7,8-difluoro-6-(8-methyl-2,3-dihydro-1H-pyrido[2,3-b][1,4]oxazin-7-yl)isoquinolin-3-yl)-5,6-dihydro-11H-imidazo[1,2-a]pyrazolo[1,5-d][1,4]diazepin-8-amine], 0.014 nM; with `Cc1c(-c2cc3cc(Nc4cc5n(n4)CC(=O)N(C)CC5)ncc3cc2F)cnc2c1[C@H](F)CCO2` (single isomer, unassigned) [Compound 235b], 0.127 nM.
`Cc1ncc(-c2cc3cc(Nc4cc5n(n4)CC(=O)N(C(C)C)CC5)ncc3cc2F)c(C)c1N` [Compound 126, 2-((6-(5-amino-4,6-dimethylpyridin-3-yl)-7-fluoroisoquinolin-3-yl)amino)-6-isopropyl-5,6-dihydro-4H-pyrazolo[1,5-d][1,4]diazepin-7(8H)-one]: the Ki is 0.148 nM.
As for `Cc1c(NS(C)(=O)=O)cncc1-c1cc2cc(Nc3cc4n(n3)CC(=O)N(C)CC4)ncc2cc1F` [Compound 172, N-(5-(7-fluoro-3-((6-methyl-7-oxo-5,6,7,8-tetrahydro-4H-pyrazolo[1,5-d][1,4]diazepin-2-yl)amino)isoquinolin-6-yl)-4-methylpyridin-3-yl)methanesulfonamide], the inhibition constant Ki turned out to be 0.46 nM.

What is called Ki is the equilibrium dissociation constant of an inhibitor or competing ligand from its target.
